Reference: the NIST ThermoML archive (doi:10.1007/s10765-005-8592-5)
Values joined by “and” are separate entries in the source; they are usually repeats but may differ in a detail not shown here. Identical values can stand only once.

Test: molar heat capacity at constant volume
Details: Fluid (supercritical or subcritical phases), Vacuum adiabatic calorimetry

CC(C)C [2-methylpropane]
Details | molar heat capacity at constant volume
415.15 K, 4254 kPa | 222.08 J/K/mol and 230.8 J/K/mol
420.15 K, 4664 kPa | 202.67 J/K/mol
420.15 K, 4665 kPa | 202.96 J/K/mol
425.15 K, 5082 kPa | 186.05 J/K/mol
425.15 K, 5083 kPa | 187.1 J/K/mol

CCC [propane]
Details | molar heat capacity at constant volume [J/K/mol]
270.15 K, 4427 kPa | 71.74
275.15 K, 7953 kPa | 71.26
280.15 K, 11458 kPa | 71.3
285.15 K, 14939 kPa | 72.63
290.15 K, 18398 kPa | 73.46
295.15 K, 21836 kPa | 74.57
300.15 K, 25251 kPa | 74.61
305.15 K, 28640 kPa | 74.35
310.15 K, 6561 kPa | 74.57
315.15 K, 9049 kPa | 75.23
320.15 K, 11532 kPa | 76.15
325.15 K, 3660 kPa | 77.96
325.15 K, 14008 kPa | 76.37
330.15 K, 5594 kPa | 78.75
330.15 K, 16475 kPa | 76.64
335.15 K, 7530 kPa | 78.31
335.15 K, 18934 kPa | 76.9
340.15 K, 9468 kPa | 77.7
340.15 K, 21386 kPa | 77.21
345.15 K, 11404 kPa | 77.26
345.15 K, 23827 kPa | 76.33
350.15 K, 13339 kPa | 79.46
350.15 K, 26253 kPa | 77.52
355.15 K, 15273 kPa | 77.39
355.15 K, 28668 kPa | 77.43
360.15 K, 17203 kPa | 77.74
365.15 K, 19126 kPa | 78.62
370.15 K, 21044 kPa | 79.15
375.15 K, 5095 kPa | 98.6
380.15 K, 5744 kPa | 93.04
385.15 K, 6404 kPa | 89.6
390.15 K, 7072 kPa | 86.07
395.15 K, 7746 kPa | 84.84
400.15 K, 8425 kPa | 80.43
405.15 K, 9109 kPa | 78.84
410.15 K, 9795 kPa | 79.99
420.15 K, 11176 kPa | 79.81
425.15 K, 11869 kPa | 81.75
